Several values for one entry are separate records, joined by “and”; a condition that tells them apart may be missing. Identical values can stand only once. Inconclusive results and toxic doses are left out. Rule as the data show it: active = T/C of 150% or more; inactive = T/C below 125%. Square brackets hold non-standard residues; d marks the D form. Peptide text beside a SMILES is read from it. * marks the point of attachment. ξ: configuration not given here. ONp = O=[N+]([O-])c1ccc(O*)cc1; Tos = Cc1ccc(S(=O)(=O)*)cc1; Cbz = O=C(OCc1ccccc1)*; ξA = CC(N)C(=O)O
Tested on: L1210 leukemia ip in BDF1 mice, survival T/C
Experiment: NCI In Vivo Anticancer Drug Screen. Data for tumor model L1210 Leukemia (intraperitoneal) in B6D2F1 (BDF1) mice
Settings: endpoint: mean survival time, higher = longer survival
In short: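 In this screen, tumor-bearing mice given compound are compared to those given vehicle, and their survival values are reported as a treated-to-control quotient.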

[1] = dose: 100.0 mg/kg/injection, schedule: Q01DX009 (ip), vehicle: Klucel (hydroxypropylcellulose) (HPC)
[2] = dose: 100.0 mg/kg/injection, schedule: Q04DX003 (ip), vehicle: Klucel (hydroxypropylcellulose) (HPC)
[3] = dose: 200.0 mg/kg/injection, schedule: Q01DX009 (ip), vehicle: Klucel (hydroxypropylcellulose) (HPC)
[4] = dose: 200.0 mg/kg/injection, schedule: Q04DX003 (ip), vehicle: Klucel (hydroxypropylcellulose) (HPC)
[5] = dose: 400.0 mg/kg/injection, schedule: Q01DX009 (ip), vehicle: Klucel (hydroxypropylcellulose) (HPC)
[6] = dose: 400.0 mg/kg/injection, schedule: Q04DX003 (ip), vehicle: Klucel (hydroxypropylcellulose) (HPC)
[7] = dose: 100.0 mg/kg/injection, schedule: Q04DX003 (ip), vehicle: saline with Tween-80
[8] = dose: 200.0 mg/kg/injection, schedule: Q04DX003 (ip), vehicle: saline with Tween-80
[9] = dose: 400.0 mg/kg/injection, schedule: Q04DX003 (ip), vehicle: saline with Tween-80
[10] = dose: 100.0 mg/kg/injection, schedule: Q04DX002 (ip), vehicle: saline
[11] = dose: 200.0 mg/kg/injection, schedule: Q04DX002 (ip), vehicle: saline
[12] = dose: 400.0 mg/kg/injection, schedule: Q04DX002 (ip), vehicle: saline
[13] = dose: 25.0 mg/kg/injection, schedule: Q04DX002 (ip), vehicle: saline
[14] = dose: 50.0 mg/kg/injection, schedule: Q04DX002 (ip), vehicle: saline
[15] = dose: 100.0 mg/kg/injection, schedule: Q01DX001 (ip), vehicle: Klucel (hydroxypropylcellulose) (HPC)
[16] = dose: 200.0 mg/kg/injection, schedule: Q01DX001 (ip), vehicle: Klucel (hydroxypropylcellulose) (HPC)
[17] = dose: 400.0 mg/kg/injection, schedule: Q01DX001 (ip), vehicle: Klucel (hydroxypropylcellulose) (HPC)
[18] = dose: 100.0 mg/kg/injection, schedule: Q01DX009 (ip), vehicle: saline with Tween-80
[19] = dose: 200.0 mg/kg/injection, schedule: Q01DX009 (ip), vehicle: saline with Tween-80
[20] = dose: 400.0 mg/kg/injection, schedule: Q01DX009 (ip), vehicle: saline with Tween-80

Measured: T/C

CS(=O)(=O)Nc1ccc(C(=O)O)cc1
inactive: [1] 97 % of control | [2] 100 % of control | [3] 98 % of control | [4] 107 % of control | [5] 98 % of control | [6] 105 % of control

CCCCOC(=O)C#CC(=O)OCCCC
inactive: dose: 6.25 mg/kg/injection, schedule: Q01DX009 (ip), vehicle: carboxymethylcellulose (CMC) 94 % of control | dose: 6.25 mg/kg/injection, schedule: Q04DX003 (ip), vehicle: carboxymethylcellulose (CMC) 100 % of control | dose: 12.5 mg/kg/injection, schedule: Q01DX009 (ip), vehicle: carboxymethylcellulose (CMC) 96 % of control | dose: 12.5 mg/kg/injection, schedule: Q04DX002 (ip), vehicle: carboxymethylcellulose (CMC) 95 % of control and 97 % of control | dose: 12.5 mg/kg/injection, schedule: Q04DX003 (ip), vehicle: carboxymethylcellulose (CMC) 97 % of control | dose: 25.0 mg/kg/injection, schedule: Q04DX002 (ip), vehicle: carboxymethylcellulose (CMC) 92 % of control and 95 % of control | dose: 25.0 mg/kg/injection, schedule: Q04DX003 (ip), vehicle: carboxymethylcellulose (CMC) 95 % of control | dose: 50.0 mg/kg/injection, schedule: Q04DX002 (ip), vehicle: carboxymethylcellulose (CMC) 90 % of control

Cc1ccc(N=Cc2cc(Cl)cc(Cl)c2O)cc1.Cc1ccc(N=Cc2cc(Cl)cc(Cl)c2O)cc1.[Co]
inactive: [7] 104 % of control | [8] 100 % of control | [9] 114 % of control

Cc1ccc(S(=O)(=O)NCC(=O)NCC(=O)Oc2ccc([N+](=O)[O-])cc2)cc1 (Tos-Gly-Gly-ONp)
inactive: dose: 100.0 mg/kg/injection, schedule: Q04DX003 (ip), vehicle: other 105 % of control | dose: 200.0 mg/kg/injection, schedule: Q04DX003 (ip), vehicle: other 102 % of control | dose: 400.0 mg/kg/injection, schedule: Q04DX003 (ip), vehicle: other 98 % of control

O=C(Nc1ccccc1O)c1ccccc1
inactive: [2] 109 % of control | [4] 102 % of control | [6] 101 % of control

O=C(CCl)OC(=O)C(Cl)(Cl)Cl
inactive: dose: 100.0 mg/kg/injection, schedule: Q04DX003 (ip), vehicle: saline 102 % of control | dose: 200.0 mg/kg/injection, schedule: Q04DX003 (ip), vehicle: saline 96 % of control

Cc1cccc(OCC2CO2)c1 (centres undefined)
inactive: [10] 87 % of control | [11] 102 % of control | [12] 105 % of control

CC1CCC(C2=CSC3CCCCC3N2)CC1 (centres undefined)
inactive: dose: 100.0 mg/kg/injection, schedule: Q04DX002 (ip), vehicle: other 105 % of control | dose: 200.0 mg/kg/injection, schedule: Q04DX002 (ip), vehicle: other 94 % of control | dose: 400.0 mg/kg/injection, schedule: Q04DX002 (ip), vehicle: other 94 % of control

CCCC(C)(C)N
inactive: [13] 97 % of control | [14] 90 % of control | [10] 103 % of control

CCOc1ccc(NC(=O)N/N=C(\C)CC(C)C)cc1
inactive: [15] 93 % of control | [1] 99 % of control and 102 % of control | dose: 100.0 mg/kg/injection, schedule: Q04DX002 (ip), vehicle: Klucel (hydroxypropylcellulose) (HPC) 95 % of control and 89 % of control | [16] 89 % of control | [3] 96 % of control and 101 % of control | dose: 200.0 mg/kg/injection, schedule: Q04DX002 (ip), vehicle: Klucel (hydroxypropylcellulose) (HPC) 103 % of control and 110 % of control | [17] 91 % of control | [5] 95 % of control and 102 % of control | dose: 400.0 mg/kg/injection, schedule: Q04DX002 (ip), vehicle: Klucel (hydroxypropylcellulose) (HPC) 104 % of control and 92 % of control

O=C(O)CN=CC(O)C(O)C(O)C(O)CO (centres undefined)
inactive: dose: 12.5 mg/kg/injection, schedule: Q04DX002 (ip), vehicle: saline 105 % of control | [13] 88 % of control | [14] 105 % of control | [10] 123 % of control | [11] 103 % of control | [12] 106 % of control

CCOC(=O)C(CCN1CCCCC1)c1cccc2ccccc12 (centres undefined)
inactive: [2] 100 % of control | [4] 88 % of control

N#Cc1cscc1C#N
inactive: dose: 12.5 mg/kg/injection, schedule: Q01DX009 (ip), vehicle: Klucel (hydroxypropylcellulose) (HPC) 96 % of control | dose: 25.0 mg/kg/injection, schedule: Q01DX009 (ip), vehicle: Klucel (hydroxypropylcellulose) (HPC) 92 % of control | dose: 50.0 mg/kg/injection, schedule: Q01DX009 (ip), vehicle: Klucel (hydroxypropylcellulose) (HPC) 97 % of control | [1] 88 % of control | [2] 111 % of control | [4] 100 % of control | [6] 104 % of control

CC(=O)CCCSCCOC(C)=O
inactive: [1] 95 % of control | [3] 101 % of control | [5] 101 % of control

O=C(NO)Nc1nc(Cl)c(Cl)nc1Cl
inactive: dose: 25.0 mg/kg/injection, schedule: Q01DX009 (ip), vehicle: water 94 % of control | dose: 50.0 mg/kg/injection, schedule: Q01DX009 (ip), vehicle: water 100 % of control

CC(NC(=O)CNC(=O)OCc1ccccc1)C(N)=O (stereo not drawn) (Cbz-Gly-[ξA]-NH2)
inactive: [7] 102 % of control | [8] 101 % of control | [9] 101 % of control

CCCCCCCNC(=O)Nc1cc([N+](=O)[O-])ccc1C
inactive: [18] 98 % of control | [19] 98 % of control | [20] 94 % of control

Nc1nc(=S)c2[nH]c(=S)[nH]c2[nH]1
inactive: dose: 12.0 mg/kg/injection, schedule: Q01DX009 (ip), vehicle: saline 119 % of control | dose: 15.0 mg/kg/injection, schedule: Q01DX Z (ip), vehicle: saline 119 % of control | dose: 23.0 mg/kg/injection, schedule: Q01DX Z (ip), vehicle: saline 124 % of control | dose: 175.0 mg/kg/injection, schedule: Q01DX001 (ip), vehicle: saline 121 % of control | dose: 400.0 mg/kg/injection, schedule: Q01DX Z (ip), vehicle: carboxymethylcellulose (CMC) 98 % of control

C1=CC2C3CC(OCCOC4CC5CC4C4CC=CC54)C(C3)C2C1 (centres undefined)
inactive: [18] 97 % of control | [7] 98 % of control | [19] 93 % of control | [8] 100 % of control | [20] 104 % of control | [9] 95 % of control

CCN(CC)Cc1cc(Nc2nc(/C=C/c3ccc(Cl)cc3)nc(Cl)c2-c2ccc(Cl)cc2)ccc1O
inactive: dose: 12.0 mg/kg/injection, schedule: Q01DX001 (ip), vehicle: saline 100 % of control | dose: 12.5 mg/kg/injection, schedule: Q04DX003 (ip), vehicle: Klucel (hydroxypropylcellulose) (HPC) 95 % of control | dose: 25.0 mg/kg/injection, schedule: Q01DX001 (ip), vehicle: saline 107 % of control | dose: 25.0 mg/kg/injection, schedule: Q04DX003 (ip), vehicle: Klucel (hydroxypropylcellulose) (HPC) 98 % of control | dose: 50.0 mg/kg/injection, schedule: Q01DX001 (ip), vehicle: saline 100 % of control | dose: 50.0 mg/kg/injection, schedule: Q04DX003 (ip), vehicle: Klucel (hydroxypropylcellulose) (HPC) 97 % of control

O=C(C(O[N+](=O)[O-])c1ccccc1)C(O[N+](=O)[O-])c1ccccc1 (centres undefined)
inactive: [15] 95 % of control | [16] 95 % of control | [17] 93 % of control

CCC[CH2][Sn]1([CH2]CCC)[O]OC(c2ccc(C(=O)OCC)cc2)[O]1 (centres undefined)
inactive: dose: 6.25 mg/kg/injection, schedule: Q04DX002 (ip), vehicle: other 102 % of control

CC1CC[N+]2(C)CCCC12 (centres undefined)
inactive: dose: 6.25 mg/kg/injection, schedule: Q01DX009 (ip), vehicle: saline 100 % of control | dose: 12.5 mg/kg/injection, schedule: Q01DX009 (ip), vehicle: saline 100 % of control

Cn1c(=O)[nH]c(=O)c2[nH]c(CO)nc21
inactive: dose: 100.0 mg/kg/injection, schedule: Q01DX001 (ip), vehicle: carboxymethylcellulose (CMC) 100 % of control | dose: 200.0 mg/kg/injection, schedule: Q01DX001 (ip), vehicle: carboxymethylcellulose (CMC) 102 % of control

From PubChem BioAssay AID248 (DTP/NCI, 2004)
